# From patent US9580449B2, “Compositions and methods for the production of pyrimidine and pyridine compounds with BTK inhibitory activity” (Merck Patent GmbH, priority 2011, dated 2017)
# Target: full-length human BTK (Homo sapiens (Human), UniProt Q06187)
# Test: BTK IC50 enzyme assay (microfluidic off-chip mobility shift kinase assay)
# Type: biochemical
# Details: incubated for 90 min. at 27 C; read-out: Time Dependent BTK Enzyme Assay IC50
# Summary of the method: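 Read-out separates phosphorylated peptide product from substrate by charge/mass in a mobility shift format with full-length human BTK.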
# Sequence of full-length human BTK (Q06187 whole entry): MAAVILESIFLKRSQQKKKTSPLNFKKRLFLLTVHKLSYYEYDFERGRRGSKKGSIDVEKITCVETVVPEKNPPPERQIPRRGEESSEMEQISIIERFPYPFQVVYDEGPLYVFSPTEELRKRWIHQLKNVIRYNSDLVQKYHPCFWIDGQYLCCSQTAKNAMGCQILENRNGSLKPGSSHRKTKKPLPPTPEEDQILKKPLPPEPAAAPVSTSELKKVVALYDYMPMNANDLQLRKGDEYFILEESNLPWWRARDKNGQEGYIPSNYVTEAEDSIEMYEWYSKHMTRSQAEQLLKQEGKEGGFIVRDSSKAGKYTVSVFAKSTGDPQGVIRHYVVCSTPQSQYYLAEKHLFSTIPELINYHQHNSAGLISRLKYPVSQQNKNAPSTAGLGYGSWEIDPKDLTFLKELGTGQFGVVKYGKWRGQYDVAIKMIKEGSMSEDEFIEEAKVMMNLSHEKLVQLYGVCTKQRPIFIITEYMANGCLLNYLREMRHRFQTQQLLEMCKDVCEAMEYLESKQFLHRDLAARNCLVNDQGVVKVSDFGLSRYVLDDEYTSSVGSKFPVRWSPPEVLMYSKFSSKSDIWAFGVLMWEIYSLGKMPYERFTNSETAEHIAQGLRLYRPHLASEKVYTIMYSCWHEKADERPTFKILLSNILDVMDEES
row,IC50 [nM],Structure (SMILES)
1,< 1000,"C=CC(=O)N1CCCC(CNc2ncnc(N)c2-c2ccc(Oc3ccccc3)cc2)C1 (stereo not drawn) [A286, 1-(3-(((6-amino-5-(4-phenoxyphenyl)pyrimidin-4-yl)amino)methyl)piperidin-1-yl)prop-2-en-1-one]"
2,< 1000,"C=CC(=O)NCc1ccc(-c2cnccc2Oc2ccc(Oc3ccccc3)cc2)cc1 [A287, N-(4-(4-(4-phenoxyphenoxy)pyridin-3-yl)benzyl)acrylamide]"
3,< 1000,"C=CC(=O)N1CCC=C(c2cnccc2Oc2ccc(Oc3ccccc3)cc2)C1 [A288, 1-(4′-(4-phenoxyphenoxy)-5,6-dihydro-[3,3′-bipyridin]-1(2H)-yl)prop-2-en-1-one]"
4,< 1000,"C=CC(=O)Nc1cccc(Oc2ncnc(N)c2-c2ccc(OC(C)C)cc2)c1 [A289, N-(3-((6-amino-5-(4-isopropoxyphenyl)pyrimidin-4-yl)oxy)phenyl)acrylamide]"
5,< 1000,"CN(C)C/C=C/C(=O)Nc1ccc(Oc2ncnc(N)c2-c2ccc(Oc3ccccc3)cc2)cc1 [A290, (E)-N-(4-((6-amino-5-(4-phenoxyphenyl)pyrimidin-4-yl)oxy)phenyl)-4-(dimethylamino)but-2-enamide]"
6,< 1000,"C=CC(=O)Nc1cccc(Oc2ncnc(N)c2-c2cncc(OC)c2)c1 [A291, N-(3-((6-amino-5-(5-methoxypyridin-3-yl)pyrimidin-4-yl)oxy)phenyl)acrylamide]"
7,< 1000,"C=CC(=O)N1CCC(CNc2ncnc(N)c2-c2ccc(OCc3ccccc3)cc2)CC1 [A292, 1-(4-(((6-amino-5-(4-(benzyloxy)phenyl)pyrimidin-4-yl)amino)methyl)piperidin-1-yl)prop-2-en-1-one]"
8,< 1000,"C=CC(=O)Nc1cccc(Oc2ncnc(N)c2-c2c(F)cc(OCc3ccccc3)cc2F)c1 [A294, N-(3-((6-amino-5-(4-(benzyloxy)-2,6-difluorophenyl)pyrimidin-4-yl)oxy)phenyl)acrylamide]"
9,< 1000,"CC#CC(=O)Nc1cccc(-c2cnccc2Oc2ccc(Oc3ccccc3)cc2)c1 [A296, N-(3-(4-(4-phenoxyphenoxy)pyridin-3-yl)phenyl)but-2-ynamide]"
10,> 1000,"C=CC(=O)Nc1ccc(Oc2ccncc2-c2ccc(Oc3ccccc3)cc2)cc1 [A297, N-(4-((3-(4-phenoxyphenyl)pyridin-4-yl)oxy)phenyl)acrylamide]"
11,> 1000,"C=CC(=O)NC1CCCN(c2ncnc(N)c2-c2ccc(Oc3ccccc3)cc2)C1 (stereo not drawn) [A298, N-(1-(6-amino-5-(4-phenoxyphenyl)pyrimidin-4-yl)piperidin-3-yl)acrylamide]"
12,> 1000,"C=CC(=O)N1CCC(Nc2ncnc(N)c2-c2ccc(Oc3ccccc3)cc2)CC1 [A299, 1-(4-((6-amino-5-(4-phenoxyphenyl)pyrimidin-4-yl)amino)piperidin-1-yl)prop-2-en-1-one]"
13,< 1000,"Nc1cccc(-c2c(Oc3ccc(Oc4ccccc4)cc3)ccnc2N)c1 [A300, 3-(3-aminophenyl)-4-(4-phenoxyphenoxy)pyridin-2-amine]"
14,> 1000,"Nc1ncnc(Oc2ccc(Oc3ccccc3)cc2)c1-c1cccc(NC(=O)/C=C/CN2CCCC(F)(F)C2)c1 [A301, (E)-N-(3-(4-amino-6-(4-phenoxyphenoxy)pyrimidin-5-yl)phenyl)-4-(3,3-difluoropiperidin-1-yl)but-2-enamide]"
15,> 1000,"C=CC(=O)NCc1cccc(-c2cnccc2Oc2ccc(Oc3ccccc3)cc2)c1 [A302, N-(3-(4-(4-phenoxyphenoxy)pyridin-3-yl)benzyl)acrylamide]"
16,> 1000,"Nc1ccc(Oc2ncnc(N)c2-c2ccc(Oc3ccccc3)cc2)cc1 [A303, 6-(4-aminophenoxy)-5-(4-phenoxyphenyl)pyrimidin-4-amine]"
17,> 1000,"CC#CC(=O)NCc1cccc(-c2cnccc2Oc2ccc(Oc3ccccc3)cc2)c1 [A304, N-(3-(4-(4-phenoxyphenoxy)pyridin-3-yl)benzyl)but-2-ynamide]"
18,> 1000,"Nc1cccc(Oc2ncnc(N)c2-c2ccc(Oc3ccccc3)cc2)c1 [A305, 6-(3-aminophenoxy)-5-(4-phenoxyphenyl)pyrimidin-4-amine]"
19,> 1000,"C/C=C/C(=O)Nc1cccc(-c2cnccc2Oc2ccc(Oc3ccccc3)cc2)c1 [A307, (E)-N-(3-(4-(4-phenoxyphenoxy)pyridin-3-yl)phenyl)but-2-enamide]"
20,> 1000,"CCC(=O)Nc1ccc(Oc2ncnc(N)c2-c2ccc(Oc3ccccc3)cc2)cc1 [A308, N-(4-((6-amino-5-(4-phenoxyphenyl)pyrimidin-4-yl)oxy)phenyl)propionamide]"
21,> 1000,"C=CC(=O)NCC1CCCN(c2ncnc(N)c2-c2ccc(Oc3ccccc3)cc2)C1 (stereo not drawn) [A309, N-((1-(6-amino-5-(4-phenoxyphenyl)pyrimidin-4-yl)piperidin-3-yl)methyl)acrylamide]"
22,> 1000,"CCC(=O)Nc1cccc(-c2c(Oc3ccc(Oc4ccccc4)cc3)ccnc2N)c1 [A310, N-(3-(2-amino-4-(4-phenoxyphenoxy)pyridin-3-yl)phenyl)propionamide]"

row,IC50 [nM],Structure (SMILES)
1,> 1000,"C=CC(=O)Nc1cccc(-c2c(N)ncnc2N[C@H](C)c2ccccc2)c1 [A311, (R)-N-(3-(4-amino-6-((1-phenylethyl)amino)pyrimidin-5-yl)phenyl)acrylamide]"
2,> 1000,"Nc1cccc(-c2cnccc2Oc2ccc(Oc3ccccc3)cc2)c1 [A312, 3-(4-(4-phenoxyphenoxy)pyridin-3-yl)aniline]"
3,> 1000,"Nc1cccc(Oc2ccnc(N)c2-c2ccc(Oc3ccccc3)cc2)c1 [A313, 4-(3-aminophenoxy)-3-(4-phenoxyphenyl)pyridin-2-amine]"
4,> 1000,"Nc1ccc(-c2cnccc2Oc2ccc(Oc3ccccc3)cc2)cc1 [A314, 4-(4-(4-phenoxyphenoxy)pyridin-3-yl)aniline]"
5,> 1000,"NCc1ccc(-c2cnccc2Oc2ccc(Oc3ccccc3)cc2)cc1 [A315, (4-(4-(4-phenoxyphenoxy)pyridin-3-yl)phenyl)methanamine]"
6,> 1000,"NCc1cccc(-c2cnccc2Oc2ccc(Oc3ccccc3)cc2)c1 [A316, (3-(4-(4-phenoxyphenoxy)pyridin-3-yl)phenyl)methanamine]"
7,> 1000,"Nc1cccc(-c2c(N)ncnc2Oc2ccc(Oc3ccccc3)cc2)c1 [A317, 5-(3-aminophenyl)-6-(4-phenoxyphenoxy)pyrimidin-4-amine]"
8,> 1000,"CCC(=O)Nc1cccc(-c2cnccc2Oc2ccc(Oc3ccccc3)cc2)c1 [A319, N-(3-(4-(4-phenoxyphenoxy)pyridin-3-yl)phenyl)propionamide]"
9,> 1000,"C=C(C)C(=O)Nc1cccc(-c2cnccc2Oc2ccc(Oc3ccccc3)cc2)c1 [A322, N-(3-(4-(4-phenoxyphenoxy)pyridin-3-yl)phenyl)methacrylamide]"
10,> 1000,"CCC(=O)NCc1ccc(-c2cnccc2Oc2ccc(Oc3ccccc3)cc2)cc1 [A324, N-(4-(4-(4-phenoxyphenoxy)pyridin-3-yl)benzyl)propionamide]"
11,> 1000,"CCC(=O)Nc1cccc(-c2c(N)ncnc2Oc2ccc(Oc3ccccc3)cc2)c1 [A325, N-(3-(4-amino-6-(4-phenoxyphenoxy)pyrimidin-5-yl)phenyl)propionamide]"
12,> 1000,"CCC(=O)Nc1cccc(Oc2ncnc(N)c2-c2ccc(Oc3ccccc3)cc2)c1 [A326, N-(3-((6-amino-5-(4-phenoxyphenyl)pyrimidin-4-yl)oxy)phenyl)propionamide]"
13,> 1000,"C/C=C/C(=O)NCc1cccc(-c2cnccc2Oc2ccc(Oc3ccccc3)cc2)c1 [A327, (E)-N-(3-(4-(4-phenoxyphenoxy)pyridin-3-yl)benzyl)but-2-enamide]"
14,> 1000,"N#CC1(C(=O)Nc2cccc(Oc3ncnc(N)c3-c3ccc(Oc4ccccc4)cc3)c2)CC1 [A329, N-(3-((6-amino-5-(4-phenoxyphenyl)pyrimidin-4-yl)oxy)phenyl)-1-cyanocyclopropanecarboxamide]"
15,< 100,"C=CC(=O)N1CCC(CNc2ncncc2-c2ccc(Oc3ccccc3)cc2)CC1 [A334, 1-(4-(((5-(4-phenoxyphenyl)pyrimidin-4-yl)amino)methyl)piperidin-1-yl)prop-2-en-1-one]"
16,< 1000,"C=CC(=O)N1CCC(CNc2ncnc(N)c2-c2ccc(Oc3ccccn3)cc2)CC1 [A335, 1-(4-(((6-amino-5-(4-(pyridin-2-yloxy)phenyl)pyrimidin-4-yl)amino)methyl)piperidin-1-yl)prop-2-en-1-one]"
17,> 1000,"Nc1ncnc(NCC2CCN(c3cccc(Cl)n3)CC2)c1-c1ccc(Oc2ccccc2)cc1 [A337, N4-((1-(6-chloropyridin-2-yl)piperidin-4-yl)methyl)-5-(4-phenoxyphenyl)pyrimidine-4,6-diamine]"
18,< 1000,"C=CC(=O)N1CCC(COc2ncnc(N)c2-c2ccc(Oc3ccccc3)cc2)CC1 [A338, 1-(4-(((6-amino-5-(4-phenoxyphenyl)pyrimidin-4-yl)oxy)methyl)piperidin-1-yl)prop-2-en-1-one]"
19,< 100,"C=CC(=O)Nc1cccc(Oc2ncnc(N)c2-c2cc(F)c(OCc3ccccc3)cc2F)c1 [A339, N-(3-((6-amino-5-(4-(benzyloxy)-2,5-difluorophenyl)pyrimidin-4-yl)oxy)phenyl)acrylamide]"
20,< 100,"CC#CC(=O)Nc1cccc(Oc2ccnc(N)c2-c2ccc(Oc3ccccc3)cc2)c1 [A340, N-(3-((2-amino-3-(4-phenoxyphenyl)pyridin-4-yl)oxy)phenyl)but-2-ynamide]"
21,< 100,"Nc1ncnc(Oc2cccc(NC(=O)CCl)c2)c1-c1ccc(Oc2ccccc2)cc1 [A342, N-{3-[6-Amino-5-(4-phenoxy-phenyl)-pyrimidin-4-yloxy]-phenyl}-2-chloroacetamide]"
22,< 100,"C=CC(=O)Nc1cccc(Oc2ncnc(N)c2-c2ccc(OCc3ccc(F)cc3)cc2)c1 [A344, N-(3-{6-Amino-5-[4-(4-fluoro-benzyloxy)-phenyl]-pyrimidin-4-yloxy}-phenyl)-acrylamide]"

row,Structure (SMILES),IC50 [nM]
1,"CCC(=O)N1CCC(CNc2ncnc(N)c2-c2ccc(Oc3ccccc3)cc2)CC1 [A333, 1-(4-(((6-amino-5-(4-phenoxyphenyl)pyrimidin-4-yl)amino)methyl)piperidin-1-yl)propan-1-one]",< 1000
